Assay [1] deals with T1, PDE4B2 (Homo sapiens, UniProt Q07343). Nature of the assay: IMAP fluorescence polarisation PDE4 subtype assay. It counts as biochemical. On the procedure: Inhibition of PDE4 subtypes by the compound of formula (I) was tested using IMAP technology, which is based on the high affinity binding of phosphate by immobilized metal coordination complexes on nanoparticles. The binding reagent complexes with phosphate groups on nucleotide monophosphate generated from cyclic nucleotides (cAMP/cGMP) through phosphodiesterases. With fluorescence polarisation detection, binding causes a change in the rate of the molecular motion of the phosphate bearing molecule, and results in an increase in the fluorescence polarization value observed for the fluorescent label attached to the substrate.
Stocks of the compound of formula (I) were prepared in 100% DMSO. All assays were performed in 3% (final) DMSO for the IMAP assay. The compound was tested in duplicate against the PDE isoform panel at a range of concentrations (10^−10, 10^−9, 10^−8, 10^−7 M).

Assay [2] deals with PDE4B1 (Homo sapiens, UniProt Q07343). The format is biochemical. On the procedure:
(§1) Enzyme Preparations: Partially purified human recombinant phosphodiesterases (PDEs) were obtained by cloning cDNA and expressing in S. frugiperda insect cells using a baculovirus expression system. Cells are harvested from culture by centrifuging at 400×g for 5 minutes. Cell pellet is resuspended in 20 ml of RIPA Buffer (150 mM NaCl, 10 mM Tris, 0.1% NP-40, pH8.3), 4 ml/200 ml of culture, plus protease inhibitors (100 μl/10 ml) and incubated on ice for 10-20 minutes then spun at 3500×g for 10 minutes at 4° C. Supernatant is kept and the pellet thrown away.
(§2) Tritium-labelled cyclic AMP is hydrolysed to 5′-AMP o by PDE. The 5′-AMP is then further hydrolysed to adenosine by nucleotidase in snake venom. An anion-exchange resin binds all charged nucleotides and leaves [^3H]adenosine as the only labelled compound to be counted by liquid scintillation.
(§3) 50 μl of diluted PDE enzyme was incubated with 50 μl of [^3H]-cAMP (specific activity 25 Ci/mmol) and 11 μl of 50% DMSO (or compound dilution) for 20 minutes at 30° C. The enzyme was diluted in 20 mM Tris HCl pH7.4 (×2.2 final concentration) and [3H]-cAMP was diluted in 10 mM MgCl2, 40 mM Tris HCl pH 7.4 (×2.2 final concentration). Reactions were carried out in Greiner 96 deep well 1 ml master-block. The plates were centrifuged for 9 seconds before the 20 minutes incubation. […] After incubation 200 μl Dowex resin (1×8, 200-400 mesh) was added and the plate shaken for 20 minutes then centrifuged for 3 minutes at 1000×g. 50 μl of supernatant was removed and added to 200 μl of MicroScint-20 in white plates (Greiner 96well Optiplate) and shaken for 30 minutes before reading on Perkin Elmer TopCount Scintillation Counter. IC50 values were calculated using GraphPad Prism software (version 8).

In assay [3] the target is T1, PDE4B2. The format is biochemical. As to the method:
as §1, §2, §3

Assay [4] deals with PDE4B3 (Homo sapiens, UniProt Q07343). It counts as biochemical. On the procedure: as §1, §2, §3
Assay [5] deals with PDE4C2 (Homo sapiens, UniProt Q08493). It counts as biochemical. On the procedure: as §1, §2, §3
In assay [6] the target is PDE4D1 (Homo sapiens, UniProt Q08499). The format is biochemical. As to the method: as §1, §2, §3
In assay [7] the target is PDE4D2 (Homo sapiens, UniProt Q08499). The format is biochemical. On the procedure: as §1, §2, §3
In assay [8] the target is PDE4D3 (Homo sapiens, UniProt Q08499). It counts as biochemical. On the procedure:
as §1, §2, §3

The target in assay [9] is PDE4D4 (Homo sapiens, UniProt Q08499). The format is biochemical. On the procedure:
as §1, §2, §3

In assay [10] the target is PDE4D5 (Homo sapiens, UniProt Q08499). It counts as biochemical. As to the method: as §1, §2, §3
The target in assay [11] is PDE4D7 (Homo sapiens, UniProt Q08499). It counts as biochemical. On the procedure:
as §1, §2, §3

Assay [12] deals with TNF-α release from human peripheral blood mononuclear cells. Nature of the assay: TNF-α release, serum-free, hPBMC, LPS. The format is cell-based. Conditions: PBMC, 18 hours. On the procedure: TNF-α, Serumfree, hPBMC, LPS
Cultures of human PBMC isolated from buffy coats were stimulated with lipopolysaccharide to activate the monocytes and to release TNF-α. PBMC were isolated from fresh buffy coats and frozen for later use. On the assay day, cells were thawed, washed in serum free medium (RPMI1640 with 25 mM HEPES, 1% pen/strep, […] L glutamine and 0.5% human serum albumin) and living cells were counted. Test compounds were diluted in DMSO and further diluted in serum-free medium and pipetted into wells of 384 well tissue culture plates. LPS was added to the cells which shortly thereafter were added to the wells with titrated test compounds and incubated for 18 hours at 37° C. The next day, the level of TNF-α in the culture supernatant was quantitated by homogenous time-resolved fluorescence (HTRF) where FRET was measured at 665 nm and normalized to the fluorescence of europium cryptate at 620 nm. The effect (inhibition of TNF-α release) of a test compound was calculated using equation 1: […]
Fluorescence intensities, measured at 665 nm and 620 nm, were used to calculate the 665/620 ratio as an estimate of the level of secreted TNF-α. Sx denotes the 665/620 ratio associated with the test compound. So and Sc denote the 665/620 ratios associated with 0.1% DMSO and 1E-05 M compound (II), respectively.
This model describes a sigmoidal curve with an adjustable baseline, a. […]

Assay [13] has as its target PDE4A4 (Homo sapiens, UniProt P27815). Nature of the assay: biochemical.
Assay [14] addresses PDE4A10 (Homo sapiens, UniProt P27815). Nature of the assay: biochemical.
The subject of assay [15] is TNF-α. Nature of the assay: LPS-induced TNF-α in ferrets after single oral administration. Conditions: oral 1, 3 and 10 mg/kg; 1 hour after LPS (3 mg/kg ip).

T1 sequence (Q07343 1-564 isoform Q07343-2): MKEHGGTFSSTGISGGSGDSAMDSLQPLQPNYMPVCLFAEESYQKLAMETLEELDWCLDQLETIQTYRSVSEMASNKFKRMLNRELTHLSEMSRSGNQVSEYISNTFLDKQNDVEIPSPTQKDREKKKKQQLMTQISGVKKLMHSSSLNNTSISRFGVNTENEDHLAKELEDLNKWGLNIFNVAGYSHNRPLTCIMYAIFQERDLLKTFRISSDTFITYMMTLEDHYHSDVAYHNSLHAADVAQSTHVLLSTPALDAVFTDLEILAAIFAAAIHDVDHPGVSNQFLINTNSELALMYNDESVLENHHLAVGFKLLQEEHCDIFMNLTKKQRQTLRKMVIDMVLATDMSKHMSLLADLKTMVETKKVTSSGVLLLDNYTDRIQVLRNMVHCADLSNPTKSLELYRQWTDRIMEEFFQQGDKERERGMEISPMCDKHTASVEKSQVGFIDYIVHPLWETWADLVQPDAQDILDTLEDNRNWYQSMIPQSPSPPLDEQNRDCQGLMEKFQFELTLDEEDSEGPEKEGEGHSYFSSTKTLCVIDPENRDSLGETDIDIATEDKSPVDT
PDE4D5, sequence (Q08499 1-745 isoform Q08499-6): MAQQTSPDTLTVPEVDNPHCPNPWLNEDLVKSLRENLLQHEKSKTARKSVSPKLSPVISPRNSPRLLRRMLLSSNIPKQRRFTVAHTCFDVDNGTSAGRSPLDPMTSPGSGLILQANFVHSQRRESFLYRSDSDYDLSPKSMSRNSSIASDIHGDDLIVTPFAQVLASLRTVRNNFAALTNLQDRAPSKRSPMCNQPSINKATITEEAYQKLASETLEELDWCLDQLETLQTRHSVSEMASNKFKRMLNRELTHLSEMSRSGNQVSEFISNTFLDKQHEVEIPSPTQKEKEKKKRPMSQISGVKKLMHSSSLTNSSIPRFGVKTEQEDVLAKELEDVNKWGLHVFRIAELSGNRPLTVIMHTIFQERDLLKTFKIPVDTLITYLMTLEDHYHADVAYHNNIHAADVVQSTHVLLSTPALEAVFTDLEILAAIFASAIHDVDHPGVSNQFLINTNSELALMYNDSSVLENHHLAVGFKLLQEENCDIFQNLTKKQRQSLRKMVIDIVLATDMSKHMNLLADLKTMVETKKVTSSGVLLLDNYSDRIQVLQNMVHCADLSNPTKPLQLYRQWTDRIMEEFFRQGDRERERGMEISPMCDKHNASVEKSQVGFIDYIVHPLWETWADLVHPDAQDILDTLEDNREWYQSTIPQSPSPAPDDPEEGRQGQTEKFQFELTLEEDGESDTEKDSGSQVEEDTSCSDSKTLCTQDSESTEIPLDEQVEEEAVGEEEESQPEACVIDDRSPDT
PDE4D2, sequence (Q08499 303-809): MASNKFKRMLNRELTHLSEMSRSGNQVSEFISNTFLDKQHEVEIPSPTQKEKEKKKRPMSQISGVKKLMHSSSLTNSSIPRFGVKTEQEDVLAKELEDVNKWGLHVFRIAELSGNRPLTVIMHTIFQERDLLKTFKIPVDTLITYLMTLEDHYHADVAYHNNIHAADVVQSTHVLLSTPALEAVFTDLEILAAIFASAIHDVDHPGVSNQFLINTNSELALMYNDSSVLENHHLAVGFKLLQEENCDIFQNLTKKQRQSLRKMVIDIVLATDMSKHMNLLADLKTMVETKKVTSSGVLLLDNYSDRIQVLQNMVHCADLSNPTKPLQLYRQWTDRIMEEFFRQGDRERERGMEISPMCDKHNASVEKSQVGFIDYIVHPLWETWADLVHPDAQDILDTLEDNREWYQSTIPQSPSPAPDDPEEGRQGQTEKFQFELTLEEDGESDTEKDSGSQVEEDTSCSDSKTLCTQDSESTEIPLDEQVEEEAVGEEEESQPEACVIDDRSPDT
PDE4A10, sequence (P27815 1-825 isoform P27815-6): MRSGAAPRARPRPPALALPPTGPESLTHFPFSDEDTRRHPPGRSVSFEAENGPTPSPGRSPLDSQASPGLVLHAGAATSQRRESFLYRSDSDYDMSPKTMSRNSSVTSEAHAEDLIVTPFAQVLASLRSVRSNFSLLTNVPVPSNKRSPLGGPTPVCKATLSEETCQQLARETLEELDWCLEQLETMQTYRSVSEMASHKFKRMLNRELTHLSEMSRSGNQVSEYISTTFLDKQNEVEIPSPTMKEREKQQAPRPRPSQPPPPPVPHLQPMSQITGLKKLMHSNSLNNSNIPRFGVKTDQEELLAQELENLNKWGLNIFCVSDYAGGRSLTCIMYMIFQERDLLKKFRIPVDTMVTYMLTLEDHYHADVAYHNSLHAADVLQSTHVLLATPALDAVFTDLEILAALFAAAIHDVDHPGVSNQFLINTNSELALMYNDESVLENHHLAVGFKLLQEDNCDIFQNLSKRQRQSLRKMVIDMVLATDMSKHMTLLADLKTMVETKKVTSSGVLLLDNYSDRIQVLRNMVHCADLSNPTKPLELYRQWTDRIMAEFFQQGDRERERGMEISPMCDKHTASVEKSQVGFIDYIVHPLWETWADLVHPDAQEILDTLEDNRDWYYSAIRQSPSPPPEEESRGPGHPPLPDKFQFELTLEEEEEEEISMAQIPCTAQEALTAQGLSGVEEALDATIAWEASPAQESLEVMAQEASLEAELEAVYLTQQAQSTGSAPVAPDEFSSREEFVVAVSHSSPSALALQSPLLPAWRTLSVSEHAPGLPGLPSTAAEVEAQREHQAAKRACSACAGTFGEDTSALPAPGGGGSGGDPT
PDE4A4, sequence (P27815 whole entry): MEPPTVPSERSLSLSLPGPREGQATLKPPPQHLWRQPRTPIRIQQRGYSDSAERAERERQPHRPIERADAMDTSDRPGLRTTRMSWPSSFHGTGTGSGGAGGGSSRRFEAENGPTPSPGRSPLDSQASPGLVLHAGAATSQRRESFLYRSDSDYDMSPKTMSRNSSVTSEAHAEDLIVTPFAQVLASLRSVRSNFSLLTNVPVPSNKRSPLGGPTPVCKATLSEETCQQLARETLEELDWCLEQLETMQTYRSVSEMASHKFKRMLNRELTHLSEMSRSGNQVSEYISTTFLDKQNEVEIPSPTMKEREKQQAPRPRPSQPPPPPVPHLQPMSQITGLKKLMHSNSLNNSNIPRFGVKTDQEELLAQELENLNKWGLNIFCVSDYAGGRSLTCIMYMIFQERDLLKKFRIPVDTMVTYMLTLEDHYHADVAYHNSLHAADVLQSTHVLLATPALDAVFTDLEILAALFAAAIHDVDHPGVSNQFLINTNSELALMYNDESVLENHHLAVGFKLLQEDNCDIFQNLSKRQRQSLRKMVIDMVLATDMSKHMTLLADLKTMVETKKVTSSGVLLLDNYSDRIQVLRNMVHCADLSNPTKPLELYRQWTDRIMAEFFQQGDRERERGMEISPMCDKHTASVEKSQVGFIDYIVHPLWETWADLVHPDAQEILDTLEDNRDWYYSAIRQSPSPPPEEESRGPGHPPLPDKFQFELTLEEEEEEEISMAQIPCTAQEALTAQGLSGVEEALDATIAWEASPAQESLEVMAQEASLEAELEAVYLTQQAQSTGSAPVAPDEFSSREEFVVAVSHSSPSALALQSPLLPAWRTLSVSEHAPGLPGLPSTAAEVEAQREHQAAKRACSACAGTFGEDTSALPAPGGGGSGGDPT
PDE4B1, sequence (Q07343 whole entry): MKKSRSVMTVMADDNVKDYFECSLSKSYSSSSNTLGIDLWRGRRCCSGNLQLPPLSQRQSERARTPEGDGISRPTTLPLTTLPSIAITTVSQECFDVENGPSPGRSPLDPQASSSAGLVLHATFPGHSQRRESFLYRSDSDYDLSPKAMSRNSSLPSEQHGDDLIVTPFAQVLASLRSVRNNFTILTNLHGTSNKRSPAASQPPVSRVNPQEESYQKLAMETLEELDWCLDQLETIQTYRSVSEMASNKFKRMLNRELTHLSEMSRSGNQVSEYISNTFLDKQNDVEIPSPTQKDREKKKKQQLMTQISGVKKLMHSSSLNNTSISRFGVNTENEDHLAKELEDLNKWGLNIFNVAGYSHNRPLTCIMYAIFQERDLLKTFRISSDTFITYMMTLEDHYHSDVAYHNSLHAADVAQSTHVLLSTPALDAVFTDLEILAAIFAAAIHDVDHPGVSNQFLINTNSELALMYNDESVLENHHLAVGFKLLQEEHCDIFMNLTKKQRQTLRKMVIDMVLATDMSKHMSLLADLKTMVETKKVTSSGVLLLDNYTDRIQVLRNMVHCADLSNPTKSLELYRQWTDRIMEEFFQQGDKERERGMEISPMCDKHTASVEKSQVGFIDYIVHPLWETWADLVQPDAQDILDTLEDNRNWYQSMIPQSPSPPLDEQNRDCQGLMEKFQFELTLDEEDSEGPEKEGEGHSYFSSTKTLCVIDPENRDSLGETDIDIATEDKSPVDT
PDE4C2, sequence (Q08493 107-712): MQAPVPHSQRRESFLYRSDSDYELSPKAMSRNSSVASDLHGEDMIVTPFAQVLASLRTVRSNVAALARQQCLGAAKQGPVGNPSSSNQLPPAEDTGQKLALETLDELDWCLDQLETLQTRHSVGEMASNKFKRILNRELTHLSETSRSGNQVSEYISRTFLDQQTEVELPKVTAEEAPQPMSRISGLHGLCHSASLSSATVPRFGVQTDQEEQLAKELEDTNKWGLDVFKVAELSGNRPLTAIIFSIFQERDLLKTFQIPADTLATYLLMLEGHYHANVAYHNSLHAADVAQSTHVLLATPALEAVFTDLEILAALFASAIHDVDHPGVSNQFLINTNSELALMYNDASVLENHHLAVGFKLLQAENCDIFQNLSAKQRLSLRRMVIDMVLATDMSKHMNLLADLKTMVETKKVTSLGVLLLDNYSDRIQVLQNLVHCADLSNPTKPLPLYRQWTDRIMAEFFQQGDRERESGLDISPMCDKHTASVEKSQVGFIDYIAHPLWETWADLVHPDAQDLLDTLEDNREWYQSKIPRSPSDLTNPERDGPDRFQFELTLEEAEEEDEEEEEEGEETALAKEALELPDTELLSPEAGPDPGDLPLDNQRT

Turning to `O=C(Cc1c(Cl)c[n+]([O-])cc1Cl)c1ccc(OC(F)F)c2c1OC1(CCS(=O)(=O)CC1)O2` [Compound (I), 2-(3,5-Dichloro-1-oxido-pyridine-4-yl)-1-(7-difluoro-methoxy-2′,3′,5′,6′-tetrahydro-spiro[1,3-benzodioxole-2,4′-(4H)-thiopyran-1′,1′-dioxide]-4-yl)ethanone], testing at 0.1 µM in [1] (compound 10^−7 M) gave an inhibition of 61%. In [1] (compound 10^−8 M), this compound had an inhibition at 0.01 µM of 41%. The compound also returned an inhibition at 0.001 µM in assay [1] (compound 10^−9 M) of 18%. This compound had an inhibition at 0.0001 µM in assay [1] (compound 10^−10 M) of 12%. The half-inhibitory concentration (IC50) in assay [2] worked out at 16 nM; in [3], 6 nM; in assay [4], 3 nM; in [5], 104 nM; in [6], 9 nM; in [7], 9 nM. For the same compound, the IC50 in assay [8] worked out at 8 nM; in [9], 8 nM; in assay [10] it was 3 nM; in [11], 3 nM; in assay [13], 11 nM; in assay [14] it was 52 nM. In addition, the EC50 in assay [12] amounted to 11.4 nM. In addition, in assay [12], the Emax was 102%. In addition, the “increase of TNF-α levels observed at 1 hour” value in assay [15] is reported as “attenuated, in a clear dose-related manner”.

For the origin of these results see patent US20250268876A1, “TREATMENT OF HIDRADENITIS SUPPURATIVA WITH ORISMILAST” (UNION THERAPEUTICS A/S, priority 2021, published 2025).
